“And” between values parts separate entries of the source, which are not always exact repeats. Equal values may be shown once.
Assays:
[1] = molecular target: T1, mTOR (Homo sapiens, UniProt P42345); assay: mTOR kinobeads assay (competition-binding assay); details: HuT-78 cell extract, endogenously expressed mTOR, bead-immobilized capturing ligand; mean of multiple experiments; read-out: mean pIC50, affinity for mTOR (converted)
T1 construct: capturing of endogenously expressed target proteins from cell extracts by a bead-immobilized capturing ligand; endogenous in cells; host or cells: HuT-78 cells (ECACC 88041901), cell lysate
Experimental: The affinity of test compounds for mTOR was determined in the mTOR kinobeads assay. This is a competition-binding assay based on the capturing of endogenously expressed target proteins from cell extracts by a bead-immobilized capturing ligand in presence of the test compound.
HuT-78 cells (European Collection of Authenticated Cell Cultures, 88041901) were cultured according to vendor's instructions. Frozen cell pellets were homogenized in 3× pellet volumes lysis buffer (50 mM Tris-HCl, 0.4% (v/v) Igepal-CA630, 5% glycerol, 150 mM NaCl, 1.5 mMMgCl2, 25 mM NaF, 1 mM sodium vanadate, 1 mM DTT, pH 7.5, supplemented with EDTA-free protease inhibitor tablet (Roche)). The sample was dispersed using a Dounce homogenizer, kept rotating for 30 min at 4° C., and centrifuged for 10 min at 20 000 g at 4° C. The supernatant was centrifuged again for 1 h at 145 000 g. The protein concentration was determined by Bradford assay (BioRad), aliquots were snap frozen in liquid nitrogen and stored at −80° C.
The capturing matrices were generated by derivatizing N-hydroxysuccinimide (NHS) activated Sepharose 4 beads (GE Healthcare) with the functionalized ligands Compound A and Compound C at a ligand density of 5 mM. Remaining NHS-groups were blocked with ethanolamine.
For the mTOR kinobeads assay the matrices were combined in a 1:1 ratio and equilibrated in DP buffer (50 mM Tris-HCl (pH 7.5), 0.4% (v/v) Igepal-CA630, 5% (v/v) glycerol, 150 mM NaCl, 1.5 mM MgCl2, 25 mM NaF, 1 mM Na3VO4, 1 mM dithiothreitol). All steps of the mTOR kinobeads assay were performed at 4° C. or on ice. The cell lysate was diluted with DP buffer to a final concentration of 5 mg/ml and a final detergent concentration of 0.4% (v/v) Igepal-CA630. For the assay 250 μg cell lysate and 2.5 μl capturing matrix per well (final assay volume: 75 μl) were incubated in the presence of test compounds in a 384-well filter plate (MultiScreenHTS HV Filter Plate, 0.45 μm, MZHVNOW50, Merck Millipore). Each plate contained 16 positive (100 μM Compound B) and 16 negative (2% v/v DMSO) control wells. Compounds were tested in a concentration-response applying 1:3 or 1:4 dilution steps for in total 11 data points. DMSO concentration was 2% (v/v). After 2 h incubation on an overhead shaker (Roto-Shake Genie, Scientific Industries Inc.) at 4° C. the non-bound fraction was removed by washing the beads with DP buffer. Proteins retained on the beads were eluted in SDS sample buffer (200 mM Tris (pH 7.4), 250 mM Trizma Base, 4% (w/v) SDS, 20% (v/v) glycerol, 0.01% (w/v) bromophenol blue, 50 mM dithiothreitol) into a collection plate (384 well polypropylene microplate, V-shape, Greiner, 781 280). Eluates were spotted on nitrocellulose membranes (400 nl per spot) using an automated pin-tool liquid transfer (Biomek FX, Beckman). After drying, the membranes were rehydrated in 20% (v/v) ethanol and blocked by incubation with Odyssey blocking buffer (LICOR, 927-40000) for 1 h at room temperature. Blocked membranes were incubated overnight at 25° C. with Odyssey blocking buffer supplemented with a specific anti-mTOR antibody (Cell Signaling, 2972; 1:500) and 0.4% TWEEN-20. Then the membranes were washed in PBST buffer and incubated for 60 minutes at room temperature with the detection antibody (IRDye™ labelled antibody from LI-COR) diluted in Odyssey blocking buffer (LICOR 927-40000) containing 0.2% TWEEN-20. Then the membranes were washed with PBST and finally rinsed twice with PBS buffer to remove residual Tween-20. The membranes were then scanned with the Odyssey® Infrared Imaging System (LI-COR Biosciences). Fluorescence signals were recorded and analyzed according to the instructions of the manufacturer. Concentration response curves were computed with the software Activity Base. All data were normalized to the mean of 16 high (negative control) and 16 low (positive control) control wells on each plate. […]

[2] = tested on: phosphorylated Akt at serine 473 (pAKTs473) in primary human lung fibroblasts; assay: Highthroughput phosphorylated Akt (Ser473) in vitro immunoassay (MSD); type: cell-based; details: Fibroblast, 1 h compound, PDGF-BB 10 ng/ml for 10 min, mean of multiple experiments, read-out: mean pIC50, inhibition of pAkt (Ser473) (converted)
From the text: Highthroughput Phosphorylated Akt (Ser473) In Vitro Immunoassay
Immunoassay to measure effect of test compounds on phosphorylated Akt at serine 473 (pAKTs473) in primary human lung fibroblasts (Lonza Group Ltd, Basel, Switzerland, Catalogue No. CC-2512) using the MesoScale Discovery (MSD) platform to quantify levels of total Akt and pAKTser473.
Human lung fibroblasts were routinely maintained in fibroblast basal medium supplemented with 2% foetal bovine serum (FBS), 0.1% human fibroblast growth factor (FGF)-B, 0.1% insulin, 0.1% GA-100 (Lonza Group Ltd, Basel, Switzerland, Catalogue No. CC-3132) at 37° C. in 5% CO2 according to the manufacturer's protocol.
For the assay, cells were harvested using Trypsin/EDTA, (Lonza Group Ltd, Basel, Switzerland, Catalogue No. CC-5012), at working concentration of 0.025%, resuspended to give 3×10^5 cells/ml and 50 ul/well seeded into 384-well plates (Greiner Group, Kremsmunster, Austria, Catalogue No. 781091) in media containing 0.4% FBS and incubated o/n at 37° C. in 5% CO2.
Test compounds were dissolved in 100% DMSO to give 10 mM stock solutions and serially diluted to generate an 11-point concentration response curve. Compound were further diluted by […] into 384-well V-bottom polypropylene plates (Greiner Group, Kremsmunster, Austria, Catalogue No. 781280) with media containing 0.4% FBS to give 50 μM top compound concentration in 0.5% DMSO.
Compounds were transferred to 384-well plates contacting cells (0.1% DMSO final) and incubated for 1 h at 37° C. in 5% CO2, prior to stimulation with platelet-derived growth factor (PDGF)-BB (R&D Systems, Catalogue No. 220-BB) at 10 ng/ml (final) for 10 min at RT. Cell assay plates were incubated on ice and treated with lysis buffer (Cell Signalling Technology, Catalogue No. 9806) containing protease and phosphatase inhibitors (Thermo Scientific, Catalogue No. 78444) followed by shaking for 30 min at 4° C.
MSD plates (MSD, MA6000 384-well GAR plate, Catalogue No. L21RA-2) were blocked with blocking buffer containing TBS (MSD, Cat. No. R61TX-1) with 0.5% bovine serum albumin (BSA) (Sigma Aldrich, Cat. No. A7906), 0.1% tween-20 (Sigma Aldrich, Catalogue No. P2287) and coated with rabbit-anti-human pAkt (s473) ab (Cell Signalling Technology, Catalogue No. CST #4060) at RT with shaking, followed by washing (×3) with 1×TBS wash reagent containing 0.1% Tween-20. Cell lysates (30 ul) were added and MSD plates centrifuged at 1000 rpm at 4° C. o/n.
Plates were washed with 1×TBS wash buffer (×3), prior to addition of mouse-anti-human-total Akt ab (1 mg/ml) (Upstate (Milipore), Catalogue No. 05-591) in blocking buffer and shaken at RT for 1 h. After washing with 1×TBS wash buffer (×3), plates were incubated with goat-anti-mouse SULFO-TAG detection ab (MSD, Catalogue No. R32AC-1) (1:500 in blocking buffer) for 1 h at RT. Plates were washed with 1×TBS (×3) and read buffer (2×) (MSD, Catalogue No. R92TC-1) added before detecting electrochemiluminescence (MSD Sector Imager 6000).
Data analysis was performed by determining % inhibition values for test compounds relative to the minimum (+PDGF-BB stimulation) and maximum responses (no PDGF-BB stimulation) with non-linear regression analysis to determine IC50 values for test compounds.

| SMILES | IC50 [1] | IC50 [2] [nM] |
| --- | --- | --- |
| CNCc1cc2nc(-c3cc(CS(C)(=O)=O)cc(N4C5CCC4COC5)n3)ccc2[nH]1 [Example 47, ({5-[4-(methanesulfonylmethyl)-6-{3-oxa-8-azabicyclo[3.2.1]octan-8-yl}pyridin-2-yl]-1H-pyrrolo[3,2-b]pyridin-2-yl}methyl)(methyl)amine] | 2.51 to 316 nM | 3.16 to 316 |
| CNCc1cc2nc(-c3cc(CS(C)(=O)=O)cc(N4CCCOCC4)n3)ccc2[nH]1 [Example 45, ({5-[4-(methanesulfonylmethyl)-6-(1,4-oxazepan-4-yl)pyridin-2-yl]-1H-pyrrolo[3,2-b]pyridin-2-yl}methyl)(methyl)amine] | 2.51 to 316 nM | – |
| CC[C@H]1COCCN1c1cc(C2(S(C)(=O)=O)CCOCC2)cc(-c2ccc3[nH]c(CN(C)CC)cc3n2)n1 [Example 16, (S)—N-((5-(6-(3-ethylmorpholino)-4-(4-(methylsulfonyl)tetrahydro-2H-pyran-4-yl)pyridin-2-yl)-1H-pyrrolo[3,2-b]pyridin-2-yl)methyl)-N-methylethanamine] | 2.51 to 316 nM | 3.16 to 316 |
| CC[C@H]1COCCN1c1cc(C(C)(C)S(C)(=O)=O)cc(-c2ccc3[nH]c(CNC)cc3n2)n1 [Example 1, [(5-{6-[(3S)-3-ethylmorpholin-4-yl]-4-(2-methanesulfonylpropan-2-yl)pyridin-2-yl}-1H-pyrrolo[3,2-b]pyridin-2-yl)methyl](methyl)amine] | 2.51 to 31.6 nM and 15.8 nM and 2.51 to 316 nM | – |
| CNCc1cc2nc(-c3cc(C4(S(C)(=O)=O)CCOCC4)cc(N4CC5CCC(C4)O5)n3)ccc2[nH]1 [Example 37, ({5-[4-(4-methanesulfonyloxan-4-yl)-6-{8-oxa-3-azabicyclo[3.2.1]octan-3-yl}pyridin-2-yl]-1H-pyrrolo[3,2-b]pyridin-2-yl}methyl)(methyl)amine] | 2.51 to 31.6 nM and 2.51 to 316 nM | 3.16 to 316 |
| CC[C@H]1COCCN1c1cc(CS(N)(=O)=O)cc(-c2ccc3[nH]c(CNC)cc3n2)n1 [Example 29, {2-[(3S)-3-ethylmorpholin-4-yl]-6-{2-[(methylamino)methyl]-1H-pyrrolo[3,2-b]pyridin-5-yl}pyridin-4-yl}methanesulfonamide] | 2.51 to 31.6 nM and 2.51 to 316 nM | 3.16 to 316 |
| CNCc1cc2nc(-c3cc(CS(C)(=O)=O)cc(N4CCOC[C@H]4C)n3)ccc2[nH]1 [Example 26, ({5-[4-(methanesulfonylmethyl)-6-[(3R)-3-methylmorpholin-4-yl]pyridin-2-yl]-1H-pyrrolo[3,2-b]pyridin-2-yl}methyl)(methyl)amine] | 2.51 to 316 nM | 3.16 to 316 |
| CC[C@H]1COCCN1c1cc(C2(S(C)(=O)=O)CCNCC2)cc(-c2ccc3[nH]c(CNC)cc3n2)n1 [Example 24, [(5-{6-[(3S)-3-ethylmorpholin-4-yl]-4-(4-methanesulfonylpiperidin-4-yl)pyridin-2-yl}-1H-pyrrolo[3,2-b]pyridin-2-yl)methyl](methyl)amine] | 2.51 to 31.6 nM and 2.51 to 316 nM | 3.16 to 316 |
| CC[C@H]1COCCN1c1cc(CS(C)(=O)=O)cc(-c2ccc3[nH]c(CN(C)CC)cc3n2)n1 [Example 14, (S)—N-((5-(6-(3-ethylmorpholino)-4-((methylsulfonyl)-methyl)pyridin-2-yl)-1H-pyrrolo[3,2-b]pyridin-2-yl)-methyl)-N-methylethanamine] | 2.51 to 316 nM | 3.16 to 316 |
| CC[C@H]1COCCN1c1cc(C2(S(C)(=O)=O)CCNCC2)cc(-c2ccc3[nH]c(CO)cc3n2)n1 [Example 36] | 2.51 to 31.6 nM and 2.51 to 316 nM | 3.16 to 316 |
| CC[C@H]1COCCN1c1cc(C2(S(N)(=O)=O)CCOCC2)cc(-c2ccc3[nH]c(CNC)cc3n2)n1 [Example 27, 4-{2-[(3S)-3-ethylmorpholin-4-yl]-6-{2-[(methylamino)methyl]-1H-pyrrolo[3,2-b]pyridin-5-yl}pyridin-4-yl}oxane-4-sulfonamide] | – | 3.16 to 316 |
| CNCc1cc2nc(-c3cc(CS(C)(=O)=O)cc(N4CCOCC4)n3)ccc2[nH]1 [Example 46, ({5-[4-(methanesulfonylmethyl)-6-(morpholin-4-yl)pyridin-2-yl]-1H-pyrrolo[3,2-b]pyridin-2-yl}methyl)(methyl)amine] | 2.51 to 316 nM | – |
| CC[C@H]1COCCN1c1cc(C2(S(C)(=O)=O)CCN(C(C)=O)CC2)cc(-c2ccc3[nH]c(CNC)cc3n2)n1 [Example 39, 1-(4-{2-[(3S)-3-ethylmorpholin-4-yl]-6-{2-[(methylamino)methyl]-1H-pyrrolo[3,2-b]pyridin-5-yl}pyridin-4-yl}-4-methanesulfonylpiperidin-1-yl)ethan-1-one] | 2.51 to 316 nM | – |
